Experiment: Human HepG2 cell viability assay in 384 well format
Type: toxicity, cell-based
Design: dose 125 nL, time 70.5 hour; cytotoxicity at 70.5 h: concentration not given beside the values
Conditions: HepG2 cells, read-out: Inhibition

In order of rising cytotoxicity at 70.5 h:
1. Cc1cccc(NC(=O)c2nn(C3CCS(=O)(=O)C3)c3c2CCCC3)n1 (configuration not stated)  -27.2%
2. O=c1[nH]c(NCc2cccc(-c3ccccc3)c2)nc2c1CCNC2  -21%
3. CN(C)CCN(C)C(=O)c1cn(CC2CCCCC2)nn1  -18.4%
4. O=C(NCC1CCOC1)c1cc(-c2cccc(Cl)c2)[nH]n1 (configuration not stated)  -17%
5. N#Cc1c(F)cccc1N1CCCC(C(=O)Nc2nncs2)C1 (configuration not stated)  -16.9%
6. CNC(=O)C1CCCN1c1nc(C)c2ccccc2n1 (configuration not stated)  -16.3%
7. CCOc1ccccc1C(=O)NCCc1ccoc1  -13.5%
8. Cc1ncc2c(n1)CCCC2NC(=O)c1ccccc1C(=O)O (configuration not stated)  -13.5%
9. Cc1ncnc2c1CCN(S(=O)(=O)C1CC1)CC2  -13.2%
10. CC(C)c1cc(C(=O)N2C[C@H]3CC[C@@H]2CN(Cc2cccnc2)C3)no1  -12.5%
11. Cc1ncsc1CN1CC[C@H]2C[C@H](c3ccncn3)O[C@@H]2C1  -12.4%
12. CC(O)CN1CCN(C(=O)CN(C)c2ccc(Cl)cn2)CC1 (configuration not stated)  -12.2%
13. Cc1nc([C@@H]2C[C@@H]3CCN(C(=O)Cc4cccs4)C[C@H]3O2)no1  -11.4%
14. Cc1ccc(C(=O)N2CCC3(CCCN(c4ccc(C)nn4)C3)C2)cn1 (configuration not stated)  -10.8%
15. Cc1cc(-c2nn3c(C(C)C)nnc3s2)on1  -10.1%
16. CC(C)Sc1nnnn1C1CCCC1  -9.93%
17. CCN(Cc1ccc2c(c1)OCO2)C(=O)NCc1nc(C)cs1  -9.62%
18. CNC(=O)[C@H]1C[C@@H]2CN(C(=O)c3ccc(C)o3)C[C@@H]2N1S(C)(=O)=O  -9.33%
19. CN1CCO[C@@H]2CN(S(=O)(=O)c3cccs3)CC[C@@H]2C1  -9.31%
20. CN(C)C(=O)CN1C[C@@H]2CC[C@H](C1)N(Cc1ccccc1OCCO)C2  -9.08%
21. COc1c(Br)c(C(=O)NC2CCCC2)nn1C  -9.06%
22. CC(NCc1ccc(OCc2nccn2C)cc1)c1cccnc1 (configuration not stated)  -9.04%
23. Cn1c(N)c2c(=O)n(C)c(-c3ccc(Cl)cc3)cc2c(C#N)c1=O  -8.81%
24. COCCn1ccnc1C1CCN(Cc2ccccc2C#N)CC1  -8.7%
25. COc1ccc2c(c1)CCCN(C(=O)NCC1CCCO1)C2 (configuration not stated)  -8.68%
26. NC(=O)c1cccc(CC2CCN(C(=O)CCc3cccc(F)c3)C2)c1 (configuration not stated)  -8.51%
27. N#Cc1cccc(N2CCC3(CCC(=O)N(CC(N)=O)C3)CC2)n1  -8.42%
28. COc1cc2nc(C)n(CC(=O)O)c(=O)c2cc1OC  -8.36%
29. Cc1ccc(C)c(C(C(=O)O)N2CCCN(Cc3ccccn3)CC2)c1 (configuration not stated)  -8.23%
30. CC(C)n1cnc2c1C(C(=O)NCCO)N(Cc1ccccc1)CC2 (configuration not stated)  -8.21%
31. Cc1cnc(N2CCC3(CC2)COCCN(C(C)C)C3)nc1  -8.08%
32. CCSc1ncccc1C(=O)NCc1ccc(N(C)C)cc1  -7.85%
33. Cn1cnnc1SCC(=O)NC1CC(=O)N(CCc2cccc(Cl)c2)C1 (configuration not stated)  -7.55%
34. Cc1ccc(CNC(=O)Nc2nncs2)n1C  -7.51%
35. CS(=O)(=O)N1C[C@H](NC(=O)c2ccno2)[C@@H]2OCCC[C@@H]21  -7.45%
36. CCNC(=O)N(C)Cc1ccc(SC)c(OC)c1  -7.42%
37. CNC(=O)Cc1cc2nccc(-c3c(OC)cccc3OC)n2n1  -7.19%
38. CCC(CO)NCc1ccc(-c2ccccc2F)o1 (configuration not stated)  -6.8%
39. Cc1nc(N2CCN(C(=O)c3ccco3)CC2)c2c(n1)c(C)nn2C  -6.71%
40. NC(=O)c1ccnc(N2CCCC(CO)(Cc3ccc(F)cc3)C2)c1 (configuration not stated)  -6.25%
41. COc1c(C2CCCN2Cc2cn3ccsc3n2)c(C)nn1C (configuration not stated)  -6.12%
42. COCCN1CCN(CC(=O)N(C)Cc2ccsc2)CC1  -6.03%
43. CC(Nc1cccc(CN2CCOC2=O)c1)C(=O)N1CCNC1=O (configuration not stated)  -6.02%
44. CN1CSC[C@H]1C(=O)N1CCC(CCc2ccccc2)CC1  -5.84%
45. Cc1ccc(Cl)c2c1C1(NC(=O)c3cccnc3N1)C(=O)N2 (configuration not stated)  -5.73%
46. O=C(CC[C@@H]1CCCN2CCCC[C@H]12)NCCc1nc(O)cc(O)n1  -5.7%
47. O=C(c1ccc(F)cc1)N1CCOC(c2nc(-c3ncccn3)no2)C1 (configuration not stated)  -5.53%
48. Cc1noc(C)c1CCN1CCCC1c1nc2cc(F)ccc2[nH]1 (configuration not stated)  -5.52%
49. CNC(=O)[C@@H](c1ccccc1F)N1CCC[C@H]1C(=O)NC1CCCC1  -5.2%
50. CCN(C)C[C@@H]1CN(S(=O)(=O)c2cccc(C#N)c2)C[C@@H]1CO  -5.18%
51. CCO[C@H]1C[C@@H](O)C12CCN(C1CCN(c3ccccc3)CC1)CC2  -5.15%
52. O=c1cc(CNS(=O)(=O)C2CC2)nc2n1CCCN(CC1CC1)C2  -5.1%
53. Cc1cc(-c2cnc(NC3CC3)nc2-c2ccoc2C)on1  -5.1%
54. CCOC1CCN(C(=O)c2csc(S(N)(=O)=O)c2)CC1  -4.71%
55. O=C(COCCOc1ccccc1)N1CCCC(n2ccnc2)C1 (configuration not stated)  -4.49%
56. O=C(c1ccc2[nH]ccc2c1)N1CCn2cnc(COCC3CC3)c2C1  -4.35%
57. Cc1cccc(-c2[nH]ncc2CNCC2CCN(CC(C)O)CC2)c1 (configuration not stated)  -4.28%
58. COc1ncccc1CN1CCC2(CC1)CC(OCC1CC1)CO2 (configuration not stated)  -4.27%
59. COc1cccc(NC(=O)N(CCO)Cc2ccsc2)c1  -3.88%
60. COCc1nn(C(C)C)c2c1CCN(Cc1ccccn1)C2  -3.77%
61. CC1CCN(CCNC(=O)C2CCN(C(=O)C(C)(C)C)CC2)CC1  -3.74%
62. CS(=O)(=O)N1CCO[C@@H]2CN(C(=O)C3CC(F)(F)C3)C[C@@H]2C1  -3.63%
63. CCCNC(=O)NC(=O)CN(CC(C)O)c1ccccc1 (configuration not stated)  -3.55%
64. Clc1ccc(-c2nnc([C@H]3CCN(C4CCCCC4)C3)o2)cc1  -3.54%
65. Brc1cc2c(cc1CN1CCC(N3CCCCC3)CC1)OCCO2  -2.82%
66. O=C(O)C(c1ccc2c(c1)OCO2)N1CCC(C(=O)N2CCCC2)CC1 (configuration not stated)  -2.61%
67. CC(C)(C)OC(=O)N[C@@H]1C[C@@H](O)CN(C(=O)c2ccc(F)cc2)C[C@H]1O  -2.5%
68. CN(C)c1nc2c(c(N3CCCC4(CC3)CNC(=O)O4)n1)CCCC2 (configuration not stated)  -1.83%
69. Cc1ccc(CNC(CCO)C2CCCCC2)nc1 (configuration not stated)  -1.61%
70. O=C(c1ccsc1)N1C[C@H]2CN(Cc3cccc(F)c3)C(=O)[C@H]2C1  -1.45%
71. O=C(CSc1nccc(-c2ccc3c(c2)OCO3)n1)N1CCOCC1  -1.22%
72. CCOc1ccc(NC2CCN(C3CC3)C2=O)cn1 (configuration not stated)  -1.16%
73. Cn1ncc2c1CCCN(C(=O)C1CCCC1)C2  -0.407%
74. COCC(=O)N1CCN(c2ncnc3cccc(F)c23)CC1  0.217%
75. O=C(CNCCn1cccn1)NCC1(c2ccccc2)CCCC1  0.609%
76. CCC(CO)N(Cc1ccco1)C(=O)c1ccccc1NC (configuration not stated)  0.632%
77. Cc1cnn(CC2CN(Cc3nc(C)c(C)o3)CCO2)c1 (configuration not stated)  1.07%
78. CS(=O)(=O)NCCC(=O)N1CCC(Cc2ccc(CO)cc2)C1 (configuration not stated)  1.14%
79. CN1[C@H](CN2CCCC2)C[C@@H]2CN(C(=O)c3cccn3C)CC[C@@H]21  1.34%
80. CCS(=O)(=O)CC(=O)NC(c1ccc(F)cc1)C1CCCC1 (configuration not stated)  1.5%
81. CN1CCN(C(=O)c2cc[nH]c(=O)c2)Cc2ccccc21  1.93%
82. Cc1ccc(Cl)c(C)c1NC(=O)N1CCCN(Cc2ccccn2)CC1  2.01%
83. CN(C)C(=O)NC1COC2(CCN(Cc3nccn3C)CC2)C1 (configuration not stated)  2.06%
84. Cn1cc(CCNC(=O)NCc2ccc3c(c2)OCCO3)cn1  2.32%
85. CCn1cncc1Cn1cccc(C(F)(F)F)c1=O  2.51%
86. Cc1cccc(CN2CCC(n3cc(CCO)nn3)CC2)c1C  2.7%
87. CC(NC(=O)NCCS(C)(=O)=O)c1ccc2c(c1)CCC(=O)N2 (configuration not stated)  2.87%
88. CN(CCn1nc2ccccn2c1=O)CC(=O)N1CCCC1  4.26%
89. CN1CCOC(CNC(=O)C2(c3cccc(C(F)(F)F)c3)CCCC2)C1 (configuration not stated)  6.99%
90. CCOCCCC(=O)Nc1ccc(OCc2noc(C3CC3)n2)cc1  7.14%
91. CC(C)NC(=O)c1cc2c(nc1N(C)C)CCN(S(=O)(=O)C1CC1)CC2  7.69%
92. CN(CC(=O)NC1(C)CCS(=O)(=O)C1)Cc1ccc(Br)cc1 (configuration not stated)  7.79%
93. CN(Cc1ncnn1C)C(=O)c1ccccc1NCc1ccccc1  8.8%
94. O=C(c1ccoc1)N1CCC(NCc2ccccc2-n2ccnc2)CC1  9.01%
95. O=C(O)C1CC2(CCN(c3nccc4ccccc34)CC2)CN1 (configuration not stated)  9.49%
96. CCc1ncc2c(n1)CN(Cc1cn3ccsc3n1)CC2  9.84%
97. CC(C)c1csc(C2CCCN(C(=O)c3ncccn3)C2)n1 (configuration not stated)  13%
98. O=C(Cn1ccc2ncccc2c1=O)N1CCCCC1  13.3%
99. CC(NC(=O)NCCn1ccnc1)c1ccc2c(c1)CCC(=O)N2 (configuration not stated)  13.7%
100. CCNC(=O)c1cn2cc(-c3ccccc3Cl)n(CC3CC3)c(=O)c2n1  16.2%
101. Cc1cc(C(=O)N2CC[C@]3(C[C@@H](OCc4ccccn4)CO3)C2)c(C)o1  17.1%
102. CCn1cc(NC(=O)NCC(C)N(C)C)cn1 (configuration not stated)  18.2%
103. Cc1ccc(N2CCc3ncnc(C)c3CC2)nn1  18.8%
104. CCOc1ccc(C(=O)Nc2c(C)nc3ccccn3c2=O)cc1  19.8%
105. c1cc2nc(C3CCNCC3)nn2cc1NC1CCC1  23.2%
106. COc1cc(OC)cc(-c2cccc3c2OC(CN)C3)c1 (configuration not stated)  24.7%
107. c1cncc(-c2noc(CNC3CCCN(c4cccnn4)C3)n2)c1 (configuration not stated)  24.9%
108. CCn1ncnc1C(C)Nc1cc(C2CCNCC2)nc(C)n1 (configuration not stated)  26.8%
109. CC(=O)N1CCCC2(CCN(C(=O)c3nn(C)c4ccccc34)CC2)C1  29.2%
110. COC(=O)c1ccc(S(=O)(=O)NCc2cccnc2N(C)C)cc1  29.6%
111. Cc1nn(C)c(C)c1C1CCCN1Cc1cccc(C(=O)N(C)C)c1 (configuration not stated)  37.6%
112. CCN(CC)S(=O)(=O)N(Cc1ccccn1)Cc1ccccc1C  43.2%

Source: ChEMBL document CHEMBL3507680, “University of Dundee, Gates Library screen for HepG2 cell viability”
